Where two headings read alike, the source gives them in different places.
Legend:
CCRF-CEM/VM-1 cells = assay: Cytotoxicity toward VM-26-resistant CCRF-CEM/VM-1 cells (mutated Topo II gene); format: cell-based, human
CCRF-CEM cells [1] = assay: Intracellular accumulation of [3H]vinblastine in CCRF-CEM cells; format: cell-based, human; conditions: 30 μM
Procedure: (§1) *Cells were preloaded with [^3 H]
(§2) times (or without wash) with 100 ml cold medium to remove extracellular
(§3) with or without a reverse prenyl compound or an MDRreversing agent. Cells
(§4) were then separated from radioactive medium by microfuge oillayer method.
(§5) Extracellular space counts carried down # by cells (^3 HInulin space
(§6) were subtracted from the total radioactive counts.

CCRF-CEM/VLB-100 cells = assay: Intracellular accumulation of [3H]vinblastine in CCRF-CEM/VLB-100 cells; format: cell-based, human; conditions: 30 μM
Procedure: as §1, §2, §3, §4, §5, §6

CCRF-CEM/VBL100 cells [2] = assay: cells; conditions: Homo sapiens
CCRF-CEM cells [3] = assay: Cytotoxicity / growth inhibition of CCRF-CEM leukemic cells
CCRF-CEM/VBL100 cells [4] = conditions: Table 5A, CCRF-CEM/VLB; * collaterally sensitive vs parent
DC-3F/ADX cells = assay: Cytotoxicity toward DC-3F/ADX cells; format: cell-based, hamster
DC-3F/ADII cells [5] = conditions: IC50 ratio DC-3F/ADII to DC-3F; * collaterally sensitive
DC-3F/ADII cells [6] = assay: cells; conditions: Mesocricetus auratus, DC3F, read-out: IC50 (B)
DC-3F hamster lung cells = assay: Cytotoxicity toward DC-3F hamster lung cells
[7] = Homo sapiens, CCRF-CEM, Table 5A, CCRF-CEM/VM-1, read-out: IC50
[8] = Homo sapiens, CCRF-CEM, Table 6B, CCRF-CEM/VM-1, read-out: IC50 of reversing agent
[9] = Table 5A, CCRF-CEM/VLB, * collaterally sensitive vs parent
[10] = read-out: IC50 of reversing agent, Table 6B, CCRF-CEM/VBL
[11] = Homo sapiens, Table 5A, single determinations
[12] = Homo sapiens, read-out: IC50, mean ± spread, Table 5A, CCRF-CEM, mean
[13] = Homo sapiens, read-out: IC50 of reversing agent, Table 6B, CCRF-CEM
[14] = Table 5A, single determinations
[15] = read-out: IC50, mean ± spread, Table 5A, CCRF-CEM/VLB, mean
[16] = Homo sapiens, Table 6, CCRF-CEM

Compound	IC50 (CCRF-CEM/VM-1 cells; [7])	[3H]vinblastine accumulation (CCRF-CEM cells [1]; washed)	[3H]vinblastine accumulation (CCRF-CEM cells [1]; without wash)	[3H]vinblastine accumulation (CCRF-CEM/VLB-100 cells; washed)	[3H]vinblastine accumulation (CCRF-CEM/VLB-100 cells; without wash)	IC50 (CCRF-CEM/VBL100 cells [2]; [9])	IC50 (CCRF-CEM/VBL100 cells [2]; [10])	IC50 (CCRF-CEM cells [3]; [11])	IC50 (CCRF-CEM cells [3]; [12])	IC50 (CCRF-CEM cells [3]; [13])	IC50 (CCRF-CEM/VBL100 cells [2]; Table 6, CCRF-CEM/VBL)	IC50 (CCRF-CEM/VBL100 cells [2]; [15])	IC50 (CCRF-CEM cells [3]; [16])	also measured
C=CC(C)(C)C12CC3C(=O)NC(C)C(=O)N3C1N(C(=O)C(F)(F)F)c1ccccc12 (stereo not shown) [5N-F3 -Ac-DKP 14F(E), 5N-trifluoroacetyl diketopiperazine]	41 µM	28.75 fmole/10^3 cells	33.34 fmole/10^3 cells	5.77 fmole/10^3 cells	23.34 fmole/10^3 cells	24.6 µM	24.8 µM	32.8 µM	32.2 ± 0.7 µM	32.8 µM	–	–	–	IC50 (CCRF-CEM/VM-1 cells; [8]): 40.9 µM; IC50 (CCRF-CEM cells [3]; [14]): 31.5 µM
C=CC(C)(C)C12CC3C(=O)NC(C)C(=O)N3C1N(C(C)=O)c1ccccc12 (stereo not shown) [5N-Ac-DKP 14(E), N-acetyldiketopiperazine]	32.4 µM	29.54 fmole/10^3 cells	35.08 fmole/10^3 cells	3.59 fmole/10^3 cells	12.88 fmole/10^3 cells	–	–	–	397 ± 171 µM	–	541 µM	344 ± 197 µM	225 µM	–
C=CC(C)(C)C12CC3C(=O)N(C(=O)OC(C)(C)C)C(C)C(=O)N3C1Nc1ccccc12 (stereo not shown) [Imide-BOC-DKP 14(C), imide-BOC diketopiperazine]	205 µM	30.29 fmole/10^3 cells	35.56 fmole/10^3 cells	6.10 fmole/10^3 cells	25.44 fmole/10^3 cells	65.4 µM	–	–	204 ± 116 µM	–	65.4 µM	92.9 ± 27.3 µM	88.7 µM	IC50 (CCRF-CEM/VBL100 cells [4]): 120 µM
C=CC(C)(C)C12CC3C(=O)N(C(C)=O)C(C)C(=O)N3C1N(C(C)=O)c1ccccc12 (stereo not shown) [Imide Di-Ac-DKP Amide 14(D), imide diacetate diketopiperazine]	81.4 µM	28.36 fmole/10^3 cells	34.54 fmole/10^3 cells	4.01 fmole/10^3 cells	15.92 fmole/10^3 cells	51.4 µM	–	103 µM	83.4 ± 23.4 µM	–	37.1 µM	54.7 ± 3.3 µM	62.5 µM	IC50 (CCRF-CEM/VM-1 cells; Homo sapiens, CCRF-CEM, Table 5A, CCRF-CEM/VM-1, mean, read-out: IC50, mean ± spread): 85.2 ± 4 µM; IC50 (CCRF-CEM/VM-1 cells; Table 5A, CCRF-CEM/VM-1, read-out: IC50): 89 µM; IC50 (CCRF-CEM/VBL100 cells [4]): 58 µM; IC50 (CCRF-CEM cells [3]; [14]): 64 µM
C=CC(C)(C)C12CC3c4nc5ccccc5c(=O)n4CC(=O)N3C1Nc1ccccc12 (stereo not shown) [8-Desmethyl-Ardeemin]	–	–	–	–	–	–	18.8 µM	–	–	14.3 µM	–	–	–	IC50 (DC-3F/ADX cells; DC3F/ADX, DC-3F/ADX): 4.7 µM; (C)/(A) (DC-3F/ADX cells; IC50 ratio DC-3F/ADX to DC-3F, * collaterally sensitive): 0.49 X; IC50 (CCRF-CEM/VM-1 cells; [8]): 18.1 µM; (B)/(A) (DC-3F/ADII cells [5]): 3.5 X; IC50 (DC-3F/ADII cells [6]): 26.5 µM; IC50 (DC-3F hamster lung cells; Mesocricetus auratus, DC3F, read-out: IC50 (A), mean ± spread, mean of the determinations): 9.58 ± 1.29 µM; IC50 (DC-3F hamster lung cells; Mesocricetus auratus, DC3F, read-out: IC50 (A), single determinations): 10.9 µM; IC50 (DC-3F hamster lung cells; read-out: IC50 (A), single determinations): 8.29 µM
C=CC(C)(C)C12CC3C(=O)NC(C)C(=O)N3C1Nc1ccccc12 (stereo not shown) [Diketopiperazine 14(B), Diketopiperazine]	–	28.51 fmole/10^3 cells	35.84 fmole/10^3 cells	3.33 fmole/10^3 cells	10.81 fmole/10^3 cells	–	135 µM	143 µM	132 ± 11.5 µM	143 µM	147 µM	94.6 ± 40.8 µM	148 µM	IC50 (CCRF-CEM/VM-1 cells; Homo sapiens, CCRF-CEM): 178 µM; IC50 (CCRF-CEM/VM-1 cells; Homo sapiens, CCRF-CEM, read-out: IC50 of reversing agent): 178 µM; IC50 (CCRF-CEM cells [3]; Table 5A, single determinations, listed as DKP 14(B)): 120 µM
C=CC(C)(C)C12CC3C(=O)NCC(=O)N3C1N(C=O)c1ccccc12 (stereo not shown) [5N-formyl-8-desMe-DKP]	–	–	–	–	–	372 µM	–	200 µM	–	–	–	–	–	–
C=CC(C)(C)C12CC3c4nc5ccccc5c(=O)n4C(C)C(=O)N3C1N(C(=O)C(F)(F)F)c1ccccc12 (stereo not shown) [5N F3 -Ac-Ard 3F, 5N-Tri-F Acetyl Ardeemin]	52.6 µM	28.44 fmole/10^3 cells	34.01 fmole/10^3 cells	7.28 fmole/10^3 cells	32.68 fmole/10^3 cells	17.2 µM	17.2 µM	37.5 µM	–	37.6 µM	–	–	–	–

From patent US6147076A, “Analogues of N-acetylardeemin, method of preparation and uses thereof” (priority 1996, dated 2000)
